Where “and” joins values, the source holds several entries; their conditions need not be identical. Identical values can stand only once. Like-named read-outs stand apart in the source and are kept apart here.
Key:
[1] = target: T1, MDM2 (Homo sapiens, UniProt Q00987); assay: Inhibition test of MDM2-P53 (GST-MDM2, Biotin-P53, Anti-GST-Tb, SA-XL665); type: binding
T1 construct: made in house
In short: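 Binding was measured by TR-FRET with GST-MDM2 at 4 nM final in PBS with 0.1% BSA, 5 mM DTT and 1 mM AEBSF. Compounds were tested as twelve-point 5-fold dilutions and incubated with the detection mix for 90 min at 25 °C with shaking before plate-reader reading and curve fitting.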

[2] = Pharmacokinetics in ICR mice after intravenous and intragastric administration; type: in vivo; conditions: for MRT last: read-out: MRT(0-t); for MRT inf: read-out: MRT(0-∞); for Vd: read-out: Vz
In short: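 Fasted male ICR mice, n=3/route; 2 mg/kg i.v., 5 mg/kg p.o. (gavage); vehicle 5% DMSO + 40% PEG400 + 55% of 10% HP-β-CD in saline. Plasma by LC-MS/MS, range 1-2000 ng/ml. AUC, t1/2, MRT, Cmax, Tmax, F, Vz, CL derived.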

[3] = test system: human osteosarcoma cell line SJSA-1; assay: Inhibition of proliferation of human osteosarcoma cell line SJSA-1 (DAPI staining, In Cell Analyzer); conditions: Homo sapiens, SJSA-1, 72 h, read-out: IC50 (nM), inhibitory activity on proliferation of human osteosarcoma cell line SJSA-1, SJSA-1, incubated 72 h
[4] = ICR mice, IV 2 mg/kg, individual animal, 2 mg/kg
[5] = ICR mice, PO 5 mg/kg, individual animal, 5 mg/kg
[6] = male, ICR, mouse, plasma, iv, 2 mg/kg, ICR mice, IV 2 mg/kg, individual animal
[7] = male, ICR, mouse, plasma, iv, 2 mg/kg, ICR mice, IV 2 mg/kg, mean of 3 animals
[8] = male, ICR, mouse, plasma, iv, 2 mg/kg, ICR mice, IV 2 mg/kg, mean of 3 animals, read-out: AUC(0-t)
[9] = male, ICR, mouse, plasma, iv, 2 mg/kg, ICR mice, IV 2 mg/kg, mean of 3 animals, read-out: Cmax
[10] = male, ICR, mouse, plasma, iv, 2 mg/kg, ICR mice, IV 2 mg/kg, mean of 3 animals, read-out: Tmax
[11] = male, ICR, mouse, plasma, iv, 2 mg/kg, ICR mice, IV 2 mg/kg, mean of 3 animals, read-out: t1/2 (converted)
[12] = male, ICR, mouse, plasma, po, 5 mg/kg, ICR mice, PO 5 mg/kg, mean of 3 animals
[13] = male, ICR, mouse, plasma, po, 5 mg/kg, ICR mice, PO 5 mg/kg, mean of 3 animals, read-out: AUC(0-t)
[14] = male, ICR, mouse, plasma, po, 5 mg/kg, ICR mice, PO 5 mg/kg, mean of 3 animals, read-out: Cmax
[15] = male, ICR, mouse, plasma, po, 5 mg/kg, ICR mice, PO 5 mg/kg, mean of 3 animals, read-out: Tmax
[16] = male, ICR, mouse, plasma, po, 5 mg/kg, ICR mice, PO 5 mg/kg, mean of 3 animals, read-out: t1/2 (converted)
[17] = male, ICR, mouse, plasma, po, 5 mg/kg, oral intragastric administration 5 mg/kg, read-out: AUC0-t
[18] = ICR mice, IV 2 mg/kg, individual animals 301-303, 2 mg/kg
[19] = ICR mice, PO 5 mg/kg, individual animals 401-403, 5 mg/kg
[20] = male, ICR, mouse, plasma, iv, 2 mg/kg, ICR mice, IV 2 mg/kg, individual animals 301-303
[21] = male, ICR, mouse, plasma, po, 5 mg/kg, ICR mice, PO 5 mg/kg, individual animals 401-403

T1 sequence (Q00987 whole entry): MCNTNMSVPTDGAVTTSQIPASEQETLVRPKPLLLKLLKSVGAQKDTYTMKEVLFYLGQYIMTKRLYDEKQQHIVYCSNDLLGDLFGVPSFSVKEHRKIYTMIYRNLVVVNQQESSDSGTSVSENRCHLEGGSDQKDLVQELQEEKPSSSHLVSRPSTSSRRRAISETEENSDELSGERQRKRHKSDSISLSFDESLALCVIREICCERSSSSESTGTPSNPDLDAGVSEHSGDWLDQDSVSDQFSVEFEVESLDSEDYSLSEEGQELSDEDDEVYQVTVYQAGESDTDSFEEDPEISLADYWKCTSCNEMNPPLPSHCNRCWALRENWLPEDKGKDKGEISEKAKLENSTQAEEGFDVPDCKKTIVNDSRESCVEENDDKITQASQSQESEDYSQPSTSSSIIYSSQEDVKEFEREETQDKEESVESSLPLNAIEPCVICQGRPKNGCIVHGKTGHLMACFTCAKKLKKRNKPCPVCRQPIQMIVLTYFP

For `COc1cc(OC)c(-c2nc3c(n2C(C)C)[C@@]2(C(=O)Nc4cc(Cl)ccc42)N(c2cccc(Cl)c2)C3=O)cn1` [Example S-115, (S)-6-chloro-5′-(3-chlorophenyl)-2′-(4,6-dimethoxypyridin-3-yl)-3′-isopropyl-3′H-spiro[dihydroindole-3,4′-pyrrolo[3,4-d]imidazole]-2,6′(5′H)-dione], which IC50 [1] is on record?
Its IC50 is 0.0013 µM.

And the “AUC(0-t)” value [2, 4]?
The value was 2.27866 µg·h/mL and 2.98742 µg·h/mL.

And the “AUC(0-∞)” value [2, 4]?
The value was 2.28966 µg·h/mL and 3.0113 µg·h/mL.

And the CL [2, 4]?
The CL was 0.8736 L/h/kg and 0.6642 L/h/kg.

What about the Cmax [2, 4] of the same molecule?
Its Cmax is 2.54996 µg/mL and 4.13698 µg/mL.

And the “MRT(0-t)” value [2, 4]?
Its value is 0.79 h and 0.82 h.

What about the “MRT(0-∞)” value [2, 4] of the same molecule?
Its value is 0.82 h and 0.87 h.

And the Vz [2, 4]?
Its Vz is 1.01 L/kg and 0.87 L/kg.

What about the t1/2 [2, 4] of the same molecule?
The t1/2 was 0.80 h.

What about the “AUC(0-t)” value [2, 5] of the same molecule?
Its value is 2.3553 µg·h/mL and 2.98559 µg·h/mL.

What about the “AUC(0-∞)” value [2, 5] of the same molecule?
The value was 2.37788 µg·h/mL and 3.06625 µg·h/mL.

And the Cmax [2, 5]?
The Cmax was 2.13546 µg/mL and 0.83466 µg/mL and 0.60129 µg/mL.

What about the “MRT(0-t)” value [2, 5] of the same molecule?
The value was 1.37 h and 2.13 h and 3.22 h.

What about the “MRT(0-∞)” value [2, 5] of the same molecule?
Its value is 1.41 h and 2.20 h and 3.39 h.

And the Tmax [2, 5]?
The Tmax was 0.50 h and 1.00 h and 4.00 h.

And the t1/2 [2, 5]?
The t1/2 was 1.19 h and 1.12 h.

What about the AUC(0-inf) [2, 6] of the same molecule?
The AUC(0-inf) was 2.59 µg·h/mL.

And the clearance [2, 6]?
Its clearance is 0.772 L/h/kg.

And the AUC(0-t) ([2]; male, ICR, mouse, plasma, iv, 2 mg/kg, ICR mice, IV 2 mg/kg, individual animal, read-out: AUC(0-t))?
Its AUC(0-t) is 2.58 µg·h/mL.

What about the Cmax ([2]; male, ICR, mouse, plasma, iv, 2 mg/kg, ICR mice, IV 2 mg/kg, individual animal, read-out: Cmax) of the same molecule?
Its Cmax is 3 µg/mL.

And the MRT last [2, 6]?
Its MRT last is 0.9 h.

What about the MRT inf [2, 6] of the same molecule?
Its MRT inf is 0.94 h.

And the Tmax ([2]; male, ICR, mouse, plasma, iv, 2 mg/kg, ICR mice, IV 2 mg/kg, individual animal, read-out: Tmax)?
Its Tmax is 0.08 h.

And the Vd [2, 6]?
Its Vd is 1 L/kg.

And the half-life ([2]; male, ICR, mouse, plasma, iv, 2 mg/kg, ICR mice, IV 2 mg/kg, individual animal, read-out: t1/2 (converted))?
Its half-life is 0.9 h.

And the AUC(0-inf) [2, 7]?
Its AUC(0-inf) is 2.63 µg·h/mL.

What about the clearance [2, 7] of the same molecule?
The clearance was 0.77 L/h/kg.

What about the AUC(0-t) [2, 8] of the same molecule?
The AUC(0-t) was 2.61 µg·h/mL.

What about the Cmax [2, 9] of the same molecule?
Its Cmax is 3.23 µg/mL.

What about the MRT last [2, 7] of the same molecule?
The MRT last was 0.84 h.

And the MRT inf [2, 7]?
Its MRT inf is 0.88 h.

And the Tmax [2, 10]?
The Tmax was 0.083 h.

What about the Vd [2, 7] of the same molecule?
The Vd was 0.96 L/kg.

And the half-life [2, 11]?
The half-life was 0.87 h.

What about the AUC(0-inf) ([2]; male, ICR, mouse, plasma, po, 5 mg/kg, ICR mice, PO 5 mg/kg, individual animal) of the same molecule?
Its AUC(0-inf) is 3.67 µg·h/mL.

What about the AUC(0-t) ([2]; male, ICR, mouse, plasma, po, 5 mg/kg, ICR mice, PO 5 mg/kg, individual animal, read-out: AUC(0-t)) of the same molecule?
The AUC(0-t) was 3.66 µg·h/mL.

What about the half-life ([2]; male, ICR, mouse, plasma, po, 5 mg/kg, ICR mice, PO 5 mg/kg, individual animal, read-out: t1/2 (converted)) of the same molecule?
Its half-life is 1.07 h.

And the AUC(0-inf) [2, 12]?
Its AUC(0-inf) is 3.04 µg·h/mL.

What about the AUC(0-t) [2, 13] of the same molecule?
The AUC(0-t) was 3 µg·h/mL.

And the Cmax [2, 14]?
The Cmax was 1.19 µg/mL.

What about the MRT last [2, 12] of the same molecule?
The MRT last was 2.24 h.

What about the MRT inf [2, 12] of the same molecule?
The MRT inf was 2.33 h.

What about the Tmax [2, 15] of the same molecule?
Its Tmax is 1.83 h.

What about the half-life [2, 16] of the same molecule?
The half-life was 1.12 h.

And the AUC(0-t) [2, 17]?
Its AUC(0-t) is 3 µg·h/mL.

What about the bioavailability ([2]; male, mouse, plasma, ICR mice, PO 5 mg/kg vs IV 2 mg/kg, from mean values, read-out: F* (bioavailability)) of the same molecule?
The bioavailability was 45.9%.

What about the IC50 [3] of the same molecule?
The IC50 was 3360 nM.

What does the source list for `COc1cc(C(F)(F)F)ncc1-c1nc2c(n1C(C)C)[C@@]1(C(=O)Nc3cc(Cl)ccc31)N(c1cc(Cl)ccc1C)C2=O` [Example S-138, (S)-6-chloro-5′-(5-chloro-2-methylphenyl)-3′-isopropyl-2′-(4-methoxy-6-(trifluoromethyl)pyridin-3-yl)-3′H-spiro[dihydroindole-3,4′-pyrrolo[3,4-d]imidazole]-2,6′(5′H)-dione]?
IC50 [1]: 0.00104 µM; AUC(0-t) [2, 18]: 3.42799 µg·h/mL and 6.38752 µg·h/mL; AUC(0-∞) [2, 18]: 5.23736 µg·h/mL and 6.44545 µg·h/mL; CL [2, 18]: 0.382 L/h/kg and 0.31 L/h/kg; Cmax [2, 18]: 2.00299 µg/mL and 1.82827 µg/mL; MRT(0-t) [2, 18]: 4.04 h and 2.03 h and 4.19 h; MRT(0-∞) [2, 18]: 5.54 h and 4.42 h; Vz [2, 18]: 2.37 L/kg and 1.70 L/kg; t1/2 [2, 18]: 4.29 h and 3.81 h; F* ([2]; ICR mice, PO 5 mg/kg vs IV 2 mg/kg, mean): 58.12%; AUC(0-t) [2, 19]: 7.49457 µg·h/mL and 8.14705 µg·h/mL; AUC(0-∞) [2, 19]: 8.81835 µg·h/mL and 9.51489 µg·h/mL; Cmax [2, 19]: 1.47555 µg/mL and 1.46648 µg/mL; MRT(0-t) [2, 19]: 3.19 h and 3.27 h; MRT(0-∞) [2, 19]: 4.51 h and 4.52 h; Tmax [2, 19]: 4.00 h and 2.00 h and 1.00 h; t1/2 [2, 19]: 2.74 h; AUC(0-inf) [2, 20]: 6.13 µg·h/mL; clearance [2, 20]: 0.326 L/h/kg; AUC(0-t) ([2]; male, ICR, mouse, plasma, iv, 2 mg/kg, ICR mice, IV 2 mg/kg, individual animals 301-303, read-out: AUC(0-t)): 6.06 µg·h/mL; Cmax ([2]; male, ICR, mouse, plasma, iv, 2 mg/kg, ICR mice, IV 2 mg/kg, individual animals 301-303, read-out: Cmax): 2.17 µg/mL; MRT inf [2, 20]: 4.32 h; Tmax ([2]; male, ICR, mouse, plasma, iv, 2 mg/kg, ICR mice, IV 2 mg/kg, individual animals 301-303, read-out: Tmax): 0.08 h; Vd [2, 20]: 1.9 L/kg; half-life ([2]; male, ICR, mouse, plasma, iv, 2 mg/kg, ICR mice, IV 2 mg/kg, individual animals 301-303, read-out: t1/2 (converted)): 4.03 h; AUC(0-inf) [2, 7]: 5.94 µg·h/mL; clearance [2, 7]: 0.34 L/h/kg; AUC(0-t) [2, 8]: 5.29 µg·h/mL; Cmax [2, 9]: 2 µg/mL; MRT last [2, 7]: 3.42 h; MRT inf [2, 7]: 4.76 h; Tmax [2, 10]: 0.083 h; Vd [2, 7]: 1.99 L/kg; half-life [2, 11]: 4.04 h; AUC(0-inf) [2, 21]: 9.15 µg·h/mL; AUC(0-t) ([2]; male, ICR, mouse, plasma, po, 5 mg/kg, ICR mice, PO 5 mg/kg, individual animals 401-403, read-out: AUC(0-t)): 7.43 µg·h/mL; Cmax ([2]; male, ICR, mouse, plasma, po, 5 mg/kg, ICR mice, PO 5 mg/kg, individual animals 401-403, read-out: Cmax): 1.24 µg/mL; MRT last [2, 21]: 3.56 h; MRT inf [2, 21]: 5.12 h; half-life ([2]; male, ICR, mouse, plasma, po, 5 mg/kg, ICR mice, PO 5 mg/kg, individual animals 401-403, read-out: t1/2 (converted)): 2.69 h; AUC(0-inf) [2, 12]: 9.16 µg·h/mL; AUC(0-t) [2, 13]: 7.69 µg·h/mL; Cmax [2, 14]: 1.39 µg/mL; MRT last [2, 12]: 3.34 h; MRT inf [2, 12]: 4.72 h; Tmax [2, 15]: 2.33 h; half-life [2, 16]: 2.72 h; AUC(0-t) [2, 17]: 7.69 µg·h/mL; half-life ([2]; male, ICR, mouse, plasma, po, 5 mg/kg, oral intragastric administration 5 mg/kg, read-out: half-life (converted)): 2.72 h; IC50 [3]: 75.7 nM

From US11339171B2, “MDM2 inhibitors” (Gan & Lee Pharmaceuticals, priority 2017, dated 2022)
